From patent US20220354852A1, “TARGETING WNT SIGNALING FOR IMPROVED GLIOMA IMMUNOTHERAPY” (CITY OF HOPE, priority 2021, published 2022)
Entries after “also recorded” stand apart in the source; their conditions may differ.

What was measured:
[1] = test system: PBT017 and PBT106 derived lines that express high levels of the tumor antigen HER2; test: In vitro co-culture cytotoxicity assay, HER2-CAR T cells ± ICG-001; type: cell-based, human
Protocol: FIG. 2. Combinational strategy of CAR T cell-mediated tumor-antigen targeting with ICG-001 induced differentiation in glioma. […] (B) Cytotoxicity of HER2 CAR-T cells and tumor cells (1:5 ratio) was enhanced by ICG-001 at concentrations 1.25-5 μM. (C) Treatment of PBT138 patient glioma tumors with CAR T IL13Rα2+/−ICG-001.
FIG. 11. (A, B) Growth kinetics of human PBT glioma lines (PBT017, PBT030, PBT135, PBT144, and PBT147) treated with ICG-001 (0-10 μM) for 7 days and (C) mouse glioma cells (GL261, GL261-IL13, and K-luc) treated with ICG-001 (0-10 μM) for 4 days. Red boxes indicate PBT030 and PBT147 cell lines used for Nanostring and proteomics analysis. Scale bars represent S.D. of triplicate samples. (D-F) Growth kinetics of PBT017 (2,500 cells/well) treated with or without HER2-CAR T cells (500 cells/well) and with or without ICG-001 (0-5 μM). The red line is CAR T cell treatment only and the bottom three lines are with ICG-001. Experiment was done in quadruplicate and error bars indicate S.D.
FIG. 13 illustrates data resulting from the combination of ICG001 and CAR T cells toxicity in vitro using 2000 cells to start and 4 days (96-well Endpoint—cell count) according to certain embodiments.
FIG. 14 illustrates data resulting from the Combination of ICG001 and CAR T cells toxicity in vitro using 1000 cells to start and 4 days (96-well Endpoint—cell count) according to certain embodiments.
It has also been observed that ICG-001-induced differentiation of PBT017 and PBT138 (data not shown).
Next, the efficacy of a titrated dose of CAR T cells±ICG-001 to induce tumor cell killing in vitro was tested (FIG. 11D-F). The combination of HER2-engineered CAR T (HER2-CAR T) cells and IGC-001 was evaluated using in vitro co-culture assays.

[2] = test system: Wnt target genes BIRC5/Survivin and EphB2; test: Quantitative RT-PCR of Wnt target genes in human glioma cell lines; type: cell-based
Protocol: (§1) FIG. 15. Expression of target genes post-ICG-001 treatment (0-10 μM) by RT-PCR using (A-C) mouse Survivin in GL261-IL13, GL261, and K-luc cells. (D) Survivin in PBT147 human glioma cells. (E, F) Luciferase reporter assay indicating downregulation of Survivin/BIRC5 in PBT017 and PBT030 cell lines.
(§2) FIG. 16 is a table showing the expression of the target genes survivin/BIRC5 post-ICG-001 treatment ([…]) as detected by RT-PCR and Luciferase Reporter Assay.
(§3) ICG-001 differentially affects the expression of the Wnt target genes BIRC5/Survivin and EphB2 in vitro. […] The effects of ICG-001 on Wnt/CBP/β-catenin signaling were further confirmed using a Survivin-luciferase reporter assay (FIG. 15). ICG-001's selective effects on the expression of Survivin and EphB2 may serve as indicators of ICG-001 on target tissue activity in vivo (FIG. 16) and a readout for pharmacokinetics/pharmacodynamics (PK/PD) as used previously in clinical trials with the second-generation CBP/β-catenin specific antagonist PRI-724 (Anthony et al. 2013).

[3] = test system: Survivin/BIRC5 (Wnt/CBP/β-catenin signaling); test: Survivin-luciferase reporter assay; type: cell-based, human; conditions: PBT017 and PBT030 cell lines
Protocol: as §1, §2, §3

KIF20A = test: qRT-PCR of KIF20A in PBT147 and PBT030 cells; type: cell-based, human
Protocol: ICG-001 activity in vitro in human and mouse glioma cell lines. Initially, the effects of the specific CBP/β-catenin antagonist ICG-001 was tested in vitro as a single agent on human and mouse glioma cell lines (5 PBT human and 3 mouse glioma lines).

[4] = test system: subcutaneous K-luc tumors; test: IHC of immune cells in syngeneic subcutaneous K-luc glioma tumors; type: in vivo, mice (C57BL/6); conditions: 50 mg/kg/day by subcutaneous Alzet minipumps
Protocol: FIG. 22. IHC analysis of immune cells in syngeneic models of subcutaneous glioma (K-Luc). (A-D) Mice bearing subcutaneous K-luc glioma tumors were treated with ICG-001 (50 mg/kg/day) for 7, 14, or 21 days. At the end of treatment, tumor was excised and IHC stained for CD3 cells to evaluate recruitment and patterns of CD3 distribution (red). (E) Quantification of tumor coverage using ImageJ for mouse CD3, CD4, CD8, and CD31 positive cells on days 0-21. Scale bars are S.D. of duplicate sections (n=4).
Animal studies. Syngeneic mice (C57BL/6) of 8-12 weeks of age were implanted with subcutaneous K-Luc tumors (n=8). 7 days after, when tumors became palpable and after confirmation of the tumor presence with BLU imaging, mice were implanted with Alzet minipumps with ICG001 (50 mg/kg/day). Pumps were continuously providing a daily dose of ICG-001. […]
IHC was performed in COH pathology core. Tissues were scanned and quantification of CD4, CD8 and CD31 expression was done using ImageJ software.
Image analysis. Images were processed and analyzed in the ImageJ (Schneider et al. 2012, also see Schneider, C. A., Rasband, W. S., Image J, U. S. National Institutes of Health, Bethesda, Md., USA, https://imagej.nih.gov/ij/, 1997-2018). […] A watershed filter was then applied to this processed mask and the ‘Analyze Particles’ tool with a 4 pixel minimum size was employed to quantify the cells identified. […]

[5] = Tran and Zheng 2017; cited from earlier work
[6] = test system: normal somatic stem cell population; conditions: preclinical studies; cited from earlier work

## O=C1[C@H](Cc2ccc(O)cc2)N2C(=O)CCN(C(=O)NCc3ccccc3)[C@H]2CN1Cc1cccc2ccccc12 [ICG-001]
[1]; CAR-T cells and tumor cells 1:5 ratio, ICG-001 1.25-5 μM
  cytotoxicity of HER2 CAR-T cells: enhanced
[1]; HER2-CAR T cells + ICG-001, effector: target cell ratios of 1:5 and 1:10
  tumor cell killing at given effector: target cell ratios: Enhanced killing
[1]; PBT017 (and PBT106) lines, ICG-001 0-5 μM
  tumor cell killing, ICG-001 in combination with HER2-CAR T cells: synergistic cytotoxicity; also recorded: synergistic killing
[1]; Tumor[PBT106.eGFP]: CAR T [Her2] cells in ratios (1:2; 1:2, 1:4)
  killing by CAR T cells of ICG-001-treated tumor cells: improved killing by CAR T cells
[2]
  expression of Wnt/p300/β-catenin target gene EphB2: upregulating
[2]; ICG-001 0-10 μM
  expression of Wnt/CBP/β-catenin target gene BIRC5/Survivin: selectively downregulated
[3]
  Survivin/BIRC5 luciferase reporter activity: downregulation
KIF20A
  KIF20A expression: decreased expression of KIF20A
[4]; by day 14
  CD3+, CD8+, and CD4+ cells infiltrating the tumor: increase in mouse host immune cells
[4]; days 7, 14, 21
  CD31 expression in tumor: time-dependent increase
[5]
  blood-brain barrier crossing: cross the blood-brain barrier
[6]
  therapy-induced toxicity: ameliorated therapy-induced toxicity
